According to US20260373248A1, “DEGRADABLE PEPTOIDS” (Medici Therapeutics, Inc., priority 2023, published 2026):
Non-standard residues stand in square brackets, D forms with d. Residues, ends and D or L forms follow the SMILES beside them. *: point of attachment. Gly(N-(3-decanoyloxypropyl)) = CCCCCCCCCC(=O)OCCCNCC(=O)O; N(3-lauroyloxypropyl)Gly = CCCCCCCCCCCC(=O)OCCCNCC(=O)O; N(2-decanoyloxyethyl)Gly = CCCCCCCCCC(=O)OCCNCC(=O)O; N(3-imidazol-1-ylpropyl)Gly = O=C(O)CNCCCn1ccnc1; Gly(N-3-morpholinopropyl) = O=C(O)CNCCCN1CCOCC1; N(2-ethylhexyl)Gly = CCCCC(CC)CNCC(=O)O; N(CH(CH2OH)2)Gly = O=C(O)CNC(CO)CO; N(octyl)Gly = CCCCCCCCNCC(=O)O; NHexGly = CCCCCCNCC(=O)O; For = O=C*

How the values were obtained:
[1] = Delivery vehicle size and polydispersity by dynamic light scattering; format: physicochemical
Summary of the method: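 Dynamic light scattering in PBS gave size and polydispersity of peptoid LNPs. These were dialyzed overnight at 4 °C into tris-sucrose buffer pH 7.4 after microfluidic 1:3 volume mixing of mRNA in pH 5.0 citrate with ethanol lipids (peptoid:DSPC:cholesterol:DMG-PEG2000 20:1.79:7.16:1.84 w/w).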

hEPO = test: Quantification of hEPO in serum after IV injection of mRNA (Human EPO ELISA); format: in vivo; details: Balb/c mice, 2.5 μg mRNA IV, serum after 6 hours
Summary of the method: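 Balb/c mice received 2.5 μg mRNA encoding human EPO by IV injection; serum was collected after 6 hours. hEPO was measured by sandwich ELISA (biotin-conjugate, streptavidin-HRP, TMB, A450) against kit standards (mIU/mL) and an external standard (ng/mL), with values interpolated and corrected for dilution.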

mRNA = mRNA encapsulation (modified Quant-iT RiboGreen assay); format: physicochemical; details: for mean percent encapsulation of RNA: RiboGreen, without vs with Triton X-100; for % Encapsulation: mRNA
Summary of the method: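 Encapsulated fraction was calculated by comparing RiboGreen signal (excitation 485 nm, emission 530 nm) of intact particles with that of particles lysed by a 10-min Triton X-100 treatment. Total mRNA concentration was taken from the lysed samples.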

firefly luciferase = test: In vivo firefly luciferase expression after intravenous injection of fLuc mRNA delivery vehicles (IVIS imaging); parameters: species or system female Balb/c mice; details: for Total Flux (luciferase expression): fLuc mRNA, intravenous, Balb/c mice; for Total Flux: mice, 2.5 ug fLuc mRNA intravenously, 6 hours post-injection
Summary of the method: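 Read-out is total photon flux per region of interest, from whole-body IVIS images taken 10 minutes after IP D-luciferin (30 mg/mL, 10 μL/g) and from excised organs. Female Balb/c mice aged 6-8 weeks received 2.5 ug fLuc mRNA Nutshells intravenously 6 hours before imaging.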

[2] = Peptoid quantity remaining in liver by HPLC-TOF mass spectrometry; format: in vivo; details: liver homogenate
Summary of the method: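 Whole liver weighed; 20 mg tissue bead-homogenized in IPA/MeOH (8/2) with internal standard, centrifuged, supernatant run on BEH C8 HPLC-TOF MS. Peptoid concentration derived from linear calibration curve (0.2-50 μg/g) prepared in spiked untreated liver.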

luciferase = test: Luciferase expression after local (intramuscular or subcutaneous) administration of mRNA; format: in vivo; details: mRNA 0.01 mpk, 6 hours; for IM Flux: intramuscular; for SC Flux: subcutaneous
Summary of the method: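 Bioluminescence read 6 hours after fLuc mRNA dosing (peptoid Nutshells; 0.01 mpk S.C. or I.M., 0.1 mpk intratumoral) in female Balb/c mice aged 6-8 weeks. D-luciferin injected IP, whole-body imaging after 10 minutes, then organ imaging; total photon flux per region of interest.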

[3] = DLS in PBS, peptoid:DSPC:Cholesterol:DMG-PEG2000 weight ratio 20:1.79:7.16:1.84, mRNA

| Structure (SMILES) | PDI [1, 3] | Particle Size [1, 3] [nm] | Particle Size ([1]; formulation recipe F2) [nm] | hEPO (hEPO) [ng/mL] | mean percent encapsulation of RNA (mRNA) [%] | % Encapsulation (mRNA; formulation recipe F2) [%] | Total Flux (luciferase expression) (firefly luciferase; formulation recipe F2) [p/s] | Total Flux (firefly luciferase) [p/s] | % of injected dose remaining in liver [2] | IM Flux (luciferase) [p/s] | SC Flux (luciferase) [p/s] | Particle Size ([1]; formulation recipe D22) [nm] | Particle Size ([1]; formulation recipe O5) [nm] | Particle Size ([1]; formulation recipe O8) [nm] | % Encapsulation (mRNA; formulation recipe D22) [%] | % Encapsulation (mRNA; formulation recipe O5) [%] | % Encapsulation (mRNA; formulation recipe O8) [%] | Total Flux (luciferase expression) (firefly luciferase; formulation recipe D22) [p/s] | Total Flux (luciferase expression) (firefly luciferase; formulation recipe O5) [p/s] | Total Flux (luciferase expression) (firefly luciferase; formulation recipe O8) [p/s] |
| --- | --- | --- | --- | --- | --- | --- | --- | --- | --- | --- | --- | --- | --- | --- | --- | --- | --- | --- | --- | --- |
| CCCCCCCCCC(=O)OCCCN(CC(=O)N(CCCOC(=O)CCCCCCCCC)CC(=O)N(CCCCCC)CC(=O)N(CCCOC(=O)CCCCCCCCC)CC(=O)N(CCCOC(=O)CCCCCCCCC)CC(=O)N(CCCCCC)CC(N)=O)C(=O)CN(C=O)CCCN1CCOCC1 [Compound 108] (For-[Gly(N-3-morpholinopropyl)][Gly(N-(3-decanoyloxypropyl))][Gly(N-(3-decanoyloxypropyl))][NHexGly][Gly(N-(3-decanoyloxypropyl))][Gly(N-(3-decanoyloxypropyl))][NHexGly]-NH2) | 0.263 | 96.7 | 95.3 | 377 | 49.9 | 60.1 | 1.47E+09 | 4.91E+09 | 7.35% | 1.25E+08 | 1.74E+08 |  |  |  |  |  |  |  |  |  |
| CCCCCCCCCC(=O)OCCCN(CC(=O)N(CC(=O)N(CCCCCC)CC(=O)N(CCCOC(=O)CCCCCCCCC)CC(=O)N(CC(=O)N(CCCCCC)CC(N)=O)CC(CC)CCCC)CC(CC)CCCC)C(=O)CNC(CO)CO (stereo not drawn) [Compound 55] (H-[N(CH(CH2OH)2)Gly][Gly(N-(3-decanoyloxypropyl))][N(2-ethylhexyl)Gly][NHexGly][Gly(N-(3-decanoyloxypropyl))][N(2-ethylhexyl)Gly][NHexGly]-NH2) | 0.139 | 90.2 |  | 63.1 | 26.3 |  |  | 6.22E+08 | 4.59% | 5.29E+07 | 9.41E+07 |  |  |  |  |  |  |  |  |  |
| CCCCCCCCCCCC(=O)OCCCN(CC(=O)N(CC(N)=O)CC(CC)CCCC)C(=O)CN(CCCCCCCC)C(=O)CN(CC(CC)CCCC)C(=O)CN(CCCOC(=O)CCCCCCCCCCC)C(=O)CN(CCCCCCCC)C(=O)CN(C=O)CCCN1CCOCC1 (stereo not drawn) [Compound 74] (For-[Gly(N-3-morpholinopropyl)][N(octyl)Gly][N(3-lauroyloxypropyl)Gly][N(2-ethylhexyl)Gly][N(octyl)Gly][N(3-lauroyloxypropyl)Gly][N(2-ethylhexyl)Gly]-NH2) | 0.151 | 87.1 |  | 354 | 67.6 |  |  | 1.96E+09 | bdl | 4.87E+07 | 2.11E+08 | 87.1 | 70.1 | 71.7 | 67.6 | 90.4 | 91.5 | 1.96E+09 | 1.92E+09 | 3.39E+09 |
| CCCCCCCCCCCC(=O)OCCCN(CC(=O)N(CC(=O)N(CC(=O)N(CCCOC(=O)CCCCCCCCCCC)CC(=O)N(CC(N)=O)CC(CC)CCCC)CC(CC)CCCC)CC(CC)CCCC)C(=O)CN(CC(CC)CCCC)C(=O)CNC(CO)CO (stereo not drawn) [Compound 6] (H-[N(CH(CH2OH)2)Gly][N(2-ethylhexyl)Gly][N(3-lauroyloxypropyl)Gly][N(2-ethylhexyl)Gly][N(2-ethylhexyl)Gly][N(3-lauroyloxypropyl)Gly][N(2-ethylhexyl)Gly]-NH2) | 0.125 | 83.9 |  | 245 | 77.1 |  |  | 1.67E+09 | 13.73% | 1.22E+08 | 1.14E+08 |  |  |  |  |  |  |  |  |  |
| CCCCCCCCCC(=O)OCCN(CC(=O)N(CCOC(=O)CCCCCCCCC)CC(=O)N(CC(=O)N(CCOC(=O)CCCCCCCCC)CC(=O)N(CCOC(=O)CCCCCCCCC)CC(=O)N(CC(N)=O)CC(CC)CCCC)CC(CC)CCCC)C(=O)CNCCCn1ccnc1 (stereo not drawn) [Compound 79] (H-[N(3-imidazol-1-ylpropyl)Gly][N(2-decanoyloxyethyl)Gly][N(2-decanoyloxyethyl)Gly][N(2-ethylhexyl)Gly][N(2-decanoyloxyethyl)Gly][N(2-decanoyloxyethyl)Gly][N(2-ethylhexyl)Gly]-NH2) | 0.108 | 61.0 |  | 320 | 97.5 |  |  | 1.60E+09 | 19.72% | 1.31E+08 | 1.59E+08 |  |  |  |  |  |  |  |  |  |
| CCCCCCCCCCCC(=O)OCCCN(CC(=O)N(CC(=O)N(CCCCCC)CC(=O)N(CCCOC(=O)CCCCCCCCCCC)CC(=O)N(CC(=O)N(CCCCCC)CC(N)=O)CC(CC)CCCC)CC(CC)CCCC)C(=O)CNCCCn1ccnc1 (stereo not drawn) [Compound 72] (H-[N(3-imidazol-1-ylpropyl)Gly][N(3-lauroyloxypropyl)Gly][N(2-ethylhexyl)Gly][NHexGly][N(3-lauroyloxypropyl)Gly][N(2-ethylhexyl)Gly][NHexGly]-NH2) | 0.139 | 106.8 |  | 36 | 89.2 |  |  | 1.71E+08 | 11.32% | 9.25E+06 | 3.73E+07 |  |  |  |  |  |  |  |  |  |
